Laboratory results reported in EP0570714B1, “Use of aminoalcohol-N-acylderivatives for the manufacture of a medicament for the treatment of neurogenic endoneural oedema of the peripheral nerve” (LIFEGROUP S.p.A., priority 1992, dated 1993).
Values joined by “and” are separate entries in the source; they are usually repeats but may differ in a detail not shown here. Identical values can stand only once.

Columns and labels:
mast cells = test: Mast cell degranulation after crushing of the sciatic nerve (in vivo, histological count); set-up: species or system Male Spraugue Dawley Rats; details: 20 mg/kg intraperitoneally for 15 days, on soy lecithin liposomes, sciatic nerve compression at 16th day, sacrifice three hours after, control average 61.4
Protocol: In order to verify the pharmacological activity of N-acyl derivatives of aminoalcohols, and in particular of N-PEA, under conditions of traumatic noxa due to crushing of the sciatic nerve, and therefore able to induce mast cells degranulation, the following "in vivo" biologic test was carried out.
Male Spraugue Dawley Rats weighing about 200 -250 g were divided into two groups and subjected for 15 days to two different treatments: the first group, being the control group, was intraperitoneally treated with a solution of liposomes of soy lecithin, whereas the second group was intraperitoneally treated with 20 mg/kg N-PEA vehiculated on soy lecithin liposomes.
At the 16th day the animals were subjected to a bland general anesthesia with ethyl ether, thereby proceeding to the operation of the nerve lesion as hereinbelow described. The left sciatic nerve was exposed just in the spot of its entrance to the haunch, by operating a dissection of the muscular bands. The thus exposed sciatic nerve was then repeatedly compressed as closest as possible to its origin, by using a crushing forceps. The wound was temporarily sewn up and the animals were left to recover.
Three hours after the sciatic nerve compression lesion the animals were sacrificed in order to take the sciatic nerve samples and to fix it for the histological analysis with a mixture of acetic acid and formalin. […]

[1] = Physical chemical characteristics: solubility; type: physicochemical
Source text: The physical chemical characteristics of the N-PEA product synthesized according to the present example were the following : […]

SMILES: CCCCCCCCCCCCCCCC(=O)NCCO [N-PEA, N-(2-hydroxyethyl)hexadecanamide]
- Number of degranulated cells on a total of 100 examined cells, average (mast cells; average of 5 rats): 36.6
- Number of degranulated cells on a total of 100 examined cells (mast cells; individual rats, 20 mg/kg): 35 and 44 and 37 and 25 and 42
- solubility in water [1]: insoluble
- solubility in organic solvent ([1]; solvents in which soluble): Hot MetOH, CHCl3, DMSO
- solubility in aqueous vehicles ([1]; stated as the reason for choosing the liposome vehicle): poor solubility
